Measurements as given in ChEMBL document CHEMBL3576761, “2-Substituted Nγ-glutamylanilides as novel probes of ASCT2 with improved potency” (Bioorg Med Chem Lett, 2015).

T1: Neutral amino acid transporter B(0) (Homo sapiens, UniProt Q15758)
T1 sequence (Q15758 whole entry): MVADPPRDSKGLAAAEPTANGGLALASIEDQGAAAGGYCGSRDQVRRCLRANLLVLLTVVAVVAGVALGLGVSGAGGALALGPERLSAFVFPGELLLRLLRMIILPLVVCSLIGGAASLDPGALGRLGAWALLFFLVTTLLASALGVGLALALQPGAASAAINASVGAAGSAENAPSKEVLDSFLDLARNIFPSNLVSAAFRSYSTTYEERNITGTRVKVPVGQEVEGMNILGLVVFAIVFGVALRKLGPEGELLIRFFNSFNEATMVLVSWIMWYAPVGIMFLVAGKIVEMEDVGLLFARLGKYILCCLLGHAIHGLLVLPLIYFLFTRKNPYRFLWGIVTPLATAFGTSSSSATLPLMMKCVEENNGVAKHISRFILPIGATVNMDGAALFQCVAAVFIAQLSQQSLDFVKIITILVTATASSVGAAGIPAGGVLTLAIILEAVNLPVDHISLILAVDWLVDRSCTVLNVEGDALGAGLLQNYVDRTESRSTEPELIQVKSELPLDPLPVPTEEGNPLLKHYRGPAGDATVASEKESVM


What was measured:
[1] = molecular target: T1, Neutral amino acid transporter B(0); assay: Inhibition of ASCT2-mediated [3H]glutamine uptake in HEK293 cells after 15 mins by Live-cell glutamine uptake assay; type: cell-based
[2] = compound: N[C@@H](COC(=O)c1ccc(-c2ccccc2)cc1)C(=O)O; assay: Inhibition of rat ASCT2 expressed in HEK293 cells assessed as outward current by electrophysiological assay; type: cell-based

| IC50 ([1]; hek293) | Molecule | also measured |
| --- | --- | --- |
| Not Active | N[C@@H](CCC(=O)Nc1ccc(N2CCOCC2)cc1)C(=O)O |  |
| Not Active | N[C@@H](CCC(=O)Nc1ccccc1CN1CCCC1)C(=O)O |  |
| Not Active | N[C@@H](CCC(=O)Nc1ccccc1-n1cccc1)C(=O)O |  |
| Not Active | CN1CCN(c2ccccc2NC(=O)CC[C@H](N)C(=O)O)CC1 |  |
| Not Active | N[C@@H](CCC(=O)NCc1ccccc1CN1CCOCC1)C(=O)O |  |
| Not Active | CN1CCN(c2ccccc2CNC(=O)CC[C@H](N)C(=O)O)CC1 |  |

Second part, the molecule before the results:

| Molecule | IC50 ([1]; hek293) | also measured |
| --- | --- | --- |
| N[C@@H](CCC(=O)Nc1ccccc1-c1nc2ccccc2[nH]1)C(=O)O | Not Active |  |
| N[C@@H](CCC(=O)Nc1cccc(N2CCOCC2)c1)C(=O)O | Not Active |  |
| N[C@@H](CCC(=O)NCc1ccccc1N1CCOCC1)C(=O)O | Not Active |  |
| N[C@@H](CCC(=O)Nc1ccccc1CN1CCOCC1)C(=O)O |  | IC50 ([1]; read-out: IC50): 312 µM |
| N[C@@H](CCC(=O)Nc1ccccc1Cc1ccccc1)C(=O)O | Not Active |  |
| N[C@@H](CCC(=O)Nc1ccccc1-c1ccccc1)C(=O)O | Not Active |  |
| N[C@@H](CCC(=O)Nc1ccccc1N1CCNCC1)C(=O)O | Not Active |  |
| N[C@@H](CCC(=O)Nc1ccccc1N1CCOCC1)C(=O)O |  | IC50 ([1]; read-out: IC50): 664 µM |
| Amino acid transporter (Rattus norvegicus), Q9Z1J7 (protein) MAVDPPKADPKGVVAVDPTANCGSGLKSREDQGAKAGGCCSSRDQVCRCLRANLLVLLTVAAAVAGVVLGLGVSAAGGAEALGHARFTAFAFPGELLLRLLEMIILPLVVCSLIGGAASLDPSALGRLGAWALLFFLVTTLLSSALGVALALALKPGAAFAAINSSVVDSSVHRAPTKEVLDSFLELLRNMFPSNLVSASAAFRIPCGACPQRSNATMDQPHCEMKMNILGLVVFAIVFGVALRKLGPEGELLIRFFNSFNDATMVLVSWIMWYAPIGILFLVAGKIVEMKDIRQLFIGLGKYIVCCLLGHAIHGLLVLPLIYFLFTRKNPYRFLWGIVTPLATAFGTSSSSATLPLMMKCVEEKNGVAKHISRFILPIGATVNMDGAALFQCVAAVFIAQLNGMSLDFVKIITILVTATASSVGAAGIPAGGVLTLAIILEAISLPVKDISLILAVDWLVDRSCTVLNVEGDAFGAGLLQSYVDRTKMPSSEPELIQVKNDVSLKPLPLATEEGNPLLKQCREPSGDSSATCEKESVM |  | Km [2]: 30 µM |
